Measurements from ChEMBL document CHEMBL5052841, “Usp19 inhibitors for use in therapy” (2020).
pIC50: −log10 of the molar value.

Molecular target: T1, Ubiquitin carboxyl-terminal hydrolase 19 (Homo sapiens, UniProt O94966)
T1 sequence (O94966 whole entry): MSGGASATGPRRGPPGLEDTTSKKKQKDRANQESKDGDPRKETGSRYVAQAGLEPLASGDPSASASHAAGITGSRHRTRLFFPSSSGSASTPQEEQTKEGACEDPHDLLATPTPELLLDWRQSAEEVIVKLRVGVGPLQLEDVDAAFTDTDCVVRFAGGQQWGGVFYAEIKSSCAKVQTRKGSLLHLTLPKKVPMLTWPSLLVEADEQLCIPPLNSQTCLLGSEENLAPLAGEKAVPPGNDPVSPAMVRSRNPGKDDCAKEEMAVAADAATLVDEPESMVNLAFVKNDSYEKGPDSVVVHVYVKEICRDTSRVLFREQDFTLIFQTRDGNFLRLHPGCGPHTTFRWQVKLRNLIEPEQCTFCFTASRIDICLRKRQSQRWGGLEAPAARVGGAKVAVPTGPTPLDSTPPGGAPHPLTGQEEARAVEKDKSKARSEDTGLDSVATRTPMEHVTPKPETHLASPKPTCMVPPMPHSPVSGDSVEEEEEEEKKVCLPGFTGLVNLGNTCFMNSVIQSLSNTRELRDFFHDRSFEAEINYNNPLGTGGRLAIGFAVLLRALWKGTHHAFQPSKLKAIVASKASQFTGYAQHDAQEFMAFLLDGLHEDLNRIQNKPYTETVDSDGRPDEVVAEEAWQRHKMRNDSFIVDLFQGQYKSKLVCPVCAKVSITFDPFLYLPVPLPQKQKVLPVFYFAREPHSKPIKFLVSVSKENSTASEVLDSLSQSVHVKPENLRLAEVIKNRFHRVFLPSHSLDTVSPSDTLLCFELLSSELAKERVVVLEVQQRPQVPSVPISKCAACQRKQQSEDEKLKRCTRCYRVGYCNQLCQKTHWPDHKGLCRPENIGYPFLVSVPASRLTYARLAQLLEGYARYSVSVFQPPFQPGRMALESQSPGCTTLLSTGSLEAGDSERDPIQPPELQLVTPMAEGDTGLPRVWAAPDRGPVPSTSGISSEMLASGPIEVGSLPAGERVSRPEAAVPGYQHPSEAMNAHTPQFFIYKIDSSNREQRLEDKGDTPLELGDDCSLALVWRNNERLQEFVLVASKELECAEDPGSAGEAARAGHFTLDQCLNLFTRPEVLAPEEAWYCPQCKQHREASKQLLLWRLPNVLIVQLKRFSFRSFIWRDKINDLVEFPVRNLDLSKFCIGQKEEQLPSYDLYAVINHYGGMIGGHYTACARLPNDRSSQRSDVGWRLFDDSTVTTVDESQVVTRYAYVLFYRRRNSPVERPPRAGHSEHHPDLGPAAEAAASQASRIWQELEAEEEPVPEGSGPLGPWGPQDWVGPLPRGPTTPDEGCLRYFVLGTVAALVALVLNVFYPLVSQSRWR
Experiment: Inhibition of C-terminal His6-tagged recombinant human USP19 using iso-peptide ubiquitin-Lys-TAMRA as substrate incubated for 30 mins and measured after 90 mins by fluorescent polarization assay

Row | Structure (SMILES) | pIC50
1 | C[C@H](CC(F)(F)F)C(=O)N1CC[C@@](O)(Cn2cnc(-c3ccccc3)cc2=O)C2(CCCC2)C1 | > 6.30
2 | C[C@H](CC1CCCCC1)C(=O)N1CC[C@@](O)(Cn2cc(C(=O)N3CCC(O)CC3)c(-c3ccccc3)cc2=O)C(C)(C)C1 | > 6.30
3 | CC(CN1CCCCC1)C(=O)N1CCC(O)(Cn2cc(C(=O)N(C)C)c(-c3ccccc3)cc2=O)C2(CCCC2)C1 (centres undefined) | ≤ 5.30
4 | O=C(C1CNCC1c1ccccc1)N1CC[C@@](O)(Cn2cnc(-c3ccccc3)cc2=O)C2(CCCC2)C1 (some centres undefined) | > 6.30
5 | C[C@H](CC1CCC1)C(=O)N1CC[C@@](O)(Cn2cc(C(=O)N(C)C)c(-c3ccccc3F)cc2=O)C2(CCCC2)C1 | > 6.30
6 | C[C@H](CC1CCCCC1)C(=O)N1CCC(O)(Cn2cnc(-c3ccccc3)cc2=O)C(C)(C)C1 (some centres undefined) | > 6.30
7 | C[C@H](CC1CCCCC1)C(=O)N1CCC(O)(Cn2cnc(-c3ccccc3CN)cc2=O)C(C)(C)C1 (some centres undefined) | > 6.30
8 | C[C@H](CC1CCC1)C(=O)N1CC[C@@](O)(Cn2cc(C(=O)N3CCNCC3)c(-c3ccccc3F)cc2=O)C2(CCCC2)C1 | > 6.30
9 | CN(C)C(=O)c1cn(CC2(O)CCN(C(=O)c3c[nH]nc3-c3ccccc3)CC23CCCC3)c(=O)cc1-c1ccccc1 (centres undefined) | ≥ 5.30
10 | C[C@H](CC1CCC1)C(=O)N1CC[C@@](O)(Cn2cc(C(=O)N(C)C)c(-c3ccccc3)cc2=O)C2(CCCC2)C1 | > 6.30
11 | O=C(C1CCNC1c1ccccc1)N1CC[C@@](O)(Cn2cnc(-c3ccccc3)cc2=O)C2(CCCC2)C1 (some centres undefined) | > 6.30
12 | C[C@H](CC1CCCCC1)C(=O)N1CC[C@@](O)(Cn2cc(C(=O)O)c(-c3ccccc3)cc2=O)C2(CCCC2)C1 | > 6.30
13 | COC[C@H](CC1CCCCC1)C(=O)N1CC[C@@](O)(Cn2cc(C(=O)N(C)C)c(-c3ccccc3)cc2=O)C(C)(C)C1 | > 6.30
14 | C[C@H](CC1CCCCC1)C(=O)N1CC[C@@](O)(Cn2cc(C(=O)N(C)C)c(-c3ccccc3F)cc2=O)C(C)(C)C1 | > 6.30
15 | C[C@H](CC1CCCCC1)C(=O)N1CCC(O)(Cn2cnc(-c3cccc(CO)c3)cc2=O)C(C)(C)C1 (some centres undefined) | > 6.30
16 | CN(C)C(=O)c1cn(C[C@]2(O)CCN(C(=O)[C@H](CCO)CC3CCCCC3)CC2(C)C)c(=O)cc1-c1ccccc1 | > 6.30
17 | C[C@H](CC1CCCCC1)C(=O)N1CCC(O)(Cn2cnc(-c3ccc(CO)cc3)cc2=O)C(C)(C)C1 (some centres undefined) | > 6.30
18 | C[C@H](CC1CCCCC1)C(=O)N1CC[C@@](O)(Cn2cc(C(=O)N(C)C)c(-c3ccccc3)cc2=O)C2(CCCC2)C1 | > 6.30
19 | C[C@H](CC1CCCCC1)C(=O)N1CCC(O)(Cn2cc(C(=O)N3CCNCC3)c(-c3ccccc3)cc2=O)C2(CCCCC2)C1 (some centres undefined) | > 6.30
20 | C[C@H](CC(F)(F)F)C(=O)N1CC[C@@](O)(Cn2cnc(-c3ccccc3F)cc2=O)C2(CCCC2)C1 | > 6.30
21 | C[C@H](CC1CCCCC1)C(=O)N1CCC(O)(Cn2cc(C(=O)N(C)C)c(-c3ccc(CO)cc3)cc2=O)C2(CCCC2)C1 (some centres undefined) | > 6.30
22 | O=C([C@@H]1CCNC[C@H]1c1ccccc1)N1CCC(O)(Cn2cnc(-c3ccccc3)cc2=O)C2(CCCC2)C1 (some centres undefined) | > 6.30
23 | C[C@H](CC1CC1)C(=O)N1CCC(O)(Cn2cc(C(=O)N(C)C)c(-c3ccccc3)cc2=O)C2(CCCC2)C1 (some centres undefined) | > 6.30
24 | C[C@H](CC1CCCCC1)C(=O)N1CC[C@@](O)(Cn2cc(C(=O)N(C)C)c(-c3ccccc3F)cc2=O)C2(CCCC2)C1 | > 6.30
25 | CN(C)C(=O)c1cn(C[C@]2(O)CCN(C(=O)[C@H](CO)CC3CCC3)CC2(C)C)c(=O)cc1-c1ccccc1 | > 6.30
26 | CC(C)CC(C)C(=O)N1CCC(O)(Cn2cc(C(=O)N(C)C)c(-c3ccccc3)cc2=O)C2(CCCC2)C1 (centres undefined) | > 6.30

Further lines, results first:

Row | pIC50 | Structure (SMILES)
27 | > 6.30 | C[C@H](CC1CCC1)C(=O)N1CC[C@@](O)(Cn2cc(C(=O)N3CCNCC3)c(-c3ccccc3)cc2=O)C2(CCCC2)C1
28 | > 6.30 | C[C@H](CC1CCCCC1)C(=O)N1CCC(O)(Cn2cc(C(=O)N(C)C)c(-c3cccc(CO)c3)cc2=O)C2(CCCC2)C1 (some centres undefined)
29 | > 6.30 | C[C@H](CC1CCCCC1)C(=O)N1CC[C@@](O)(Cn2cc(C(=O)N3CCNCC3)c(C3CC3)cc2=O)C2(CCCC2)C1
30 | > 6.30 | C[C@H](CC1CCCCC1)C(=O)N1CC[C@@](O)(Cn2cc(C(=O)N(C)C)c(C3CC3)cc2=O)C2(CCCC2)C1
31 | > 6.30 | CN(C)C(=O)c1cn(CC2(O)CCN(C(=O)C(O)CC3CCCCC3)CC23CCCC3)c(=O)cc1-c1ccccc1 (centres undefined)
32 | ≥ 5.30 | CC(n1cnc(-c2ccccc2)cc1=O)C1(O)CCN(C(=O)[C@H](C)CC2CCCCC2)CC1 (some centres undefined)
33 | > 6.30 | C[C@H](CC1CCCCC1)C(=O)N1CCC(O)(Cn2cc(C(=O)N3CCOCC3)c(-c3ccccc3)cc2=O)C(C)(C)C1 (some centres undefined)
34 | > 6.30 | C[C@H](CC1CCCCC1)C(=O)N1CCC(O)(Cn2cc(C(=O)N(C)C)c(-c3ccsc3)cc2=O)C2(CCCC2)C1 (some centres undefined)
35 | > 6.30 | C[C@H](CC1CCCCC1)C(=O)N1CCC(O)(Cn2cc(C(=O)N(C)C)c(-c3ccccc3)cc2=O)C2(CCCCC2)C1 (some centres undefined)
36 | > 6.30 | C[C@H](CC(F)(F)F)C(=O)N1CC[C@@](O)(Cn2cc(C(=O)N3CCN(C)CC3)c(-c3ccccc3)cc2=O)C2(CCCC2)C1
37 | > 6.30 | C[C@H](CC1CCCCC1)C(=O)N1CC[C@@](O)(Cn2cc(C(=O)N3CCNCC3)c(-c3ccccc3F)cc2=O)C(C)(C)C1
38 | > 6.30 | O=C(c1cn(C[C@]2(O)CCN(C(=O)[C@H](CO)CC(F)(F)F)CC23CCCC3)c(=O)cc1-c1ccccc1)N1CCOCC1
39 | > 6.30 | C[C@H](CC1CCCCC1)C(=O)N1CCC(O)(Cn2cc(C(=O)N(C)C)c(N(C)C)cc2=O)C2(CCCC2)C1 (some centres undefined)
40 | ≥ 5.30 | O=C(c1cn(C[C@]2(O)CCN(C(=O)C(CC(F)(F)F)CC(F)(F)F)CC23CCCC3)c(=O)cc1-c1ccccc1)N1CCNCC1
41 | > 6.30 | CN(C)C(=O)c1cn(CC2(O)CCN(C(=O)[C@@H]3C[C@@H]3c3ccccc3)CC23CCCC3)c(=O)cc1-c1ccccc1 (some centres undefined)
42 | > 6.30 | C[C@H](CC1CCCCC1)C(=O)N1CC[C@@](O)(Cn2cc(C(=O)N3CCNCC3)c(-c3ccccc3)cc2=O)C(C)(C)C1
43 | > 6.30 | C[C@H](CC1CCCCC1)C(=O)N1CCC(O)(Cn2cc(C(=O)N3CCN(C)CC3)c(-c3ccccc3)cc2=O)C(C)(C)C1 (some centres undefined)

Row | pIC50 | Structure (SMILES)
44 | > 6.30 | C[C@H](CC(F)(F)F)C(=O)N1CC[C@@](O)(Cn2cc(C(=O)N(C)C)c(-c3ccccc3)cc2=O)C2(CCCC2)C1
45 | > 6.30 | CC(C)N(C)C(=O)c1cn(CC2(O)CCN(C(=O)[C@H](C)CC3CCCCC3)CC2(C)C)c(=O)cc1-c1ccccc1 (some centres undefined)
46 | > 6.30 | C[C@H](CC1CCCCC1)C(=O)N1CCC(O)(Cn2cnc(-c3ccsc3)cc2=O)C(C)(C)C1 (some centres undefined)
47 | > 6.30 | C[C@H](CC1CCCCC1)C(=O)N1CC[C@@](O)(Cn2cc(C(=O)N3CCNCC3)c(-c3ccccc3F)cc2=O)C2(CCCC2)C1
48 | ≤ 4.30 | O=C(CCC1CCC1)N1CCC(O)(Cn2cnc(-c3ccccc3F)cc2=O)CC1
49 | > 6.30 | CN(C)C(=O)c1cn(C[C@]2(O)CCN(C(=O)[C@H](CO)CC3CCCCC3)CC2(C)C)c(=O)cc1-c1ccccc1
50 | > 6.30 | C[C@H](CC1CCCCC1)C(=O)N1CCC(O)(Cn2cnc(-c3ccccc3F)cc2=O)C2(CCCC2)C1 (some centres undefined)
51 | > 6.30 | C[C@H](CC(F)(F)F)C(=O)N1CC[C@@](O)(Cn2cc(C(=O)N3CCNCC3)c(-c3ccccc3)cc2=O)C2(CCCC2)C1
52 | > 6.30 | C[C@H](CC(C)(F)F)C(=O)N1CC[C@@](O)(Cn2cnc(-c3ccccc3)cc2=O)C2(CCCC2)C1
53 | > 6.30 | CC(=O)N1CCN(C(=O)c2cn(CC3(O)CCN(C(=O)[C@H](C)CC4CCCCC4)CC3(C)C)c(=O)cc2-c2ccccc2)CC1 (some centres undefined)
54 | ≤ 4.30 | O=C(CCC1CCCC1)N1CCC(O)(Cn2cnc(-c3ccccc3F)cc2=O)CC1
55 | > 6.30 | C[C@H](CC1CCCCC1)C(=O)N1CCC(O)(Cn2cc(C(=O)N(C)C)c(Cl)cc2=O)C2(CCCC2)C1 (some centres undefined)
56 | > 6.30 | CN(C)C(=O)c1cn(C[C@]2(O)CCN(C(=O)[C@H](CO)CC(F)(F)F)CC23CCCC3)c(=O)cc1-c1ccccc1
57 | > 6.30 | C[C@H](CC1CCCCC1)C(=O)N1CC[C@@](O)(Cn2cc(C(=O)N3CCOCC3)c(-c3ccccc3)cc2=O)C2(CCCC2)C1
58 | > 6.30 | C[C@H](CC1CCCCC1)C(=O)N1CC[C@@](O)(Cn2cc(C(=O)N3CCN(C)CC3)c(-c3ccccc3)cc2=O)C2(CCCC2)C1
59 | > 6.30 | C[C@@H]1CN(C(=O)c2cn(C[C@]3(O)CCN(C(=O)[C@H](C)CC4CCCCC4)CC3(C)C)c(=O)cc2-c2ccccc2)CCN1
